The subject of this series is L929 fibroblasts. In words: AA release in L929 fibroblasts. Format: cell-based. The method, then: FIGS. 3A-3B. FIG. 3A. The effects of ceramide-1-phosphate on TXB2 synthesis. A549 cells (1×10^5) were treated with D-e-C16 ceramide-1-phosphate (1 μM) solubilized in 2% dodecane/98% ethanol (final concentration in treatments was 0.002% dodecane/0.098% ethanol (EtOH)) for the indicated times. The results are presented as % control of TXB2 controlled for equivalent number of cells by MTT assay. Data are representative of 3 separate determinations on 2 separate occasions. FIG. 3B. The effects of ceramide-1-phosphate on AA release and PGE2 synthesis in L929 fibroblasts. L929 cells (5×10^4) were labeled overnight with 5 μCi/mL [^3H]-arachidonic acid (5 nM). Cells were washed and placed in DMEM supplemented with 2% fetal bovine serum for two hours. […]
Quantification of arachidonic acid (AA) release: A549 cells (5×10^4) were labeled overnight with 5 μCi/mL [^3H]-AA (5 nM) (NEN). […] Following treatment, media was transferred to 1.5 mL polypropylene tubes, centrifuged at 10,000×g, and ^3H-AA cpm determined by scintillation counting. Results were controlled for equivalent number of cells quantified by MTT assay as described (Chalfant, C. E., Rathman, K., Pinkerman, R. L., Wood, R. E., Obeid, L. M., Ogretmen, B., and Hannun, Y. A. (2002) J. Biol. Chem. 277, 12587-12595) and by verification of total AA labeling by scintillation counting. […]

For “ceramide kinase RNAi: 21-nucleotide duplex, human ceramide kinase RNAi starting 142 nucleotides from start codon (SEQ ID NO: 3 and 4) (chain 1 UGCCUGCUCUGUGCCUGUATT; chain 2 UACAGGCACAGAGCAGGCATT; chemistry not given here)”, the “inhibition of AA release in response to IL-1β” value was “over 60%”.

The values are drawn from US20060030537A1, “Ceramide kinase and uses thereof” (priority 2004, published 2006).
